Literature values, collected in patent publication US4775679A, “Certain heterocyclic-ethyl-2,3-dihydrobenzofurans useful as anti-inflammatory agents” (Merck & Co., Inc., priority 1987, dated 1988).

Tested on: inflammatory responses elicited by topically applied phorbol myristate acetate (PMA) or archidonic acid (AA)

In the case of COc1ccc2c(c1)c(CC(=O)O)c(C)n2C(=O)c1ccc(Cl)cc1 [Indomethacin], the “active in this assay (topical mouse ear), previously established” value is listed as “active”.
In the case of C[C@@H]1C[C@H]2[C@@H]3CCC4=CC(=O)C=C[C@]4(C)[C@@]3(F)[C@@H](O)C[C@]2(C)[C@@]1(O)C(=O)CO [dexamethasone], the “active in this assay (topical mouse ear), previously established” value is given as “active”.
